Read-outs that look alike come from different tables or passages of the source. Where no end group is shown, it is not given here.
Assays:
[1] = test system: human neutrophils; test: β-HA secretion from human neutrophils; assay type: cell-based; settings: for β-HA secretion from neutrophil cells (%/total): human neutrophils; for secretion of β-HA from human neutrophils: stimulation with 10 μM
Experimental: b. Preparation of Human Leukocytes
Thirty milliliters of human peripheral blood (containing 500 units of heparin sodium) was plated on 5 ml of Lymphocepal I in each of 4 centrifugal tubes and spun down (400 g, 30 min) at room temperature. After spinning, the monocytes and lymphocytes forming a turbid layer at the interface between the plasma and Lymphocepal I were carefully taken to be removed. […] The Percoll layer containing neutrophils was carefully taken and washed with physiological saline. Then, it was replaced by a 0.2% NaCl solution and about 30 seconds later, an equal amount of 1.6% NaCl aqueous solution was added; this procedure was repeated twice, whereby the left erythrocytes were lysed and neutrophils were isolated.
The purities of these monocyte-lymphocyte mixed cells and neutrophils were assayed by analysis with a flow cytometer. Propidium iodide was added to the cell suspension at a final concentration of 100 ng/ml in order to stain dead cells. Using a flow cytometer, forward scatter intensity and side scatter intensity were measured on a linear scale only for the negative cells (living cells) in the cell suspension for the propidium iodide-staining. The results were processed by CellQuest software and represented as a dot plot of forward scatter intensity (X-axis) and side scatter intensity (Y-axis). The purify of monocycle-lymphocyte mixed cells were 84% and that of the neutrophils were 83%. […]
c. Stimulation of the Cell […]
d. Measuring β-HA Enzyme Activity
The amount of β-HA secreted into the reaction supernatant was determined by measuring the absorbance at 415 nm of p-nitrophenol that was generated by an enzymatic reaction involving p-nitrophenyl N-acetyl-β-D-glucosaminide as a substrate. To be specific, 90 μl of the reaction supernatant was transferred to a 96-well Immuno plate (Nunc) and 60 μl of a substrate solution (10 mM p-nitrophenyl N-acetyl-β-D-glucosaminide/40 mM citrate, 70 mM Na2HPO4, pH 4.5) was added to initiate an enzymatic reaction. Following a 1-hr reaction at 37° C., 100 μl of a reaction quencher (400 mM glycine, pH 10.7) was added to stop the reaction and the absorbance at 415 nm was measured. As a control, cells were treated with Triton X-100 at a final concentration of 0.05% and the amount of β-HA in the supernatant was measured. As another control, the amount of β-HA secreted from cells upon stimulation with fMLP at a final concentration of 10 μM was measured.

[2] = test system: monocyte and lymphocyte mixed cells; test: β-HA secretion from monocyte and lymphocyte mixed cells; assay type: cell-based, human
[3] = test system: differentiated HL60 cells
Experimental: (§1) The differentiated HL60 cells and human leukocyte cells were washed three times with ice-cooled 0.1% BSA containing Hepes buffered Hank's solution (HBHS; 10 mM Hepes, 136.9 mM NaCl, 5.4 mM KCl, 1.2 mM CaCl2, 0.44 mM KH2PO4, 0.49 mM MgCl2, 0.41 mM MgSO4, 0.34 mM Na2HPO4, 5.5 mM glucose, 4.2 mM NaHCO3, pH 7.4). A cell suspension was prepared for each cell type at 5.5×10^6 cells/ml. Cytochalasin B and DNase I were then added to each cell suspension at a final concentration of 5 μg/ml. Ninety μl of each cell suspension was then transferred to an ice-cooled tube (5.0×10^5 cells/tube) and incubated at 37° C. for 10 minute. To each tube, either one of the fractions of polypeptide (or extract) in solution (10 μl) was added and incubated at 37° C. for 10 minutes to stimulate the cells. Immediately after the treatment, 200 μl of ice-cooled reaction quenching buffer (25 mM Tris, 123 mM NaCl, 2.7 mM KCl, pH 7.4) was added to the cell suspensions to stop the stimulation. Thereafter, the tubes were spun down at 4° C. for 60 seconds to precipitate the cell pellets and the β-HA activity and the lactate dehydrogenase (LDH) activity in the supernatant were measured.
(§2) The amount of LDH secreted into the reaction mixture was determined by measuring the absorbance (340 nm) of NADH generated by reduction of that NAD involves dehydrogenation of lactate. Reaction was initiated by adding a 400 μl of a substrate-buffer solution (125 mM 2-amino-2-methyl-1-propanol, 125 mM lithium lactate, 6.25 mM NAD, pH 9.5) to a 100 μl of the reaction supernatant. Following a 1-hr incubation at 37° C., the mixture was quenched in ice water to stop the reaction and the absorbance at 340 nm was measured.
(§3) The LDH enzyme activity secreted in the reaction mixture was expressed as the percentage of the total enzyme activity in cells (%/total) which was the enzyme activity of LDH released upon disruption of the cells with 0.05% Triton X-100.

[4] = target: T1, fMLP receptor (Homo sapiens, UniProt P21462); test: [3H]fMLP binding to the fMLP receptor on differentiated HL60 cells; settings: [3H]fMLP 50 nM, 22° C., 60 minutes; COSP-1 up to 10 μM
T1 construct: fMLP receptors are expressed on the surfaces of the cells as they differentiate into neutrophil-like cells; endogenous in cells; host or cells: HL60 cells differentiated with db-cAMP (whole cells)
T1 sequence (P21462 1-350): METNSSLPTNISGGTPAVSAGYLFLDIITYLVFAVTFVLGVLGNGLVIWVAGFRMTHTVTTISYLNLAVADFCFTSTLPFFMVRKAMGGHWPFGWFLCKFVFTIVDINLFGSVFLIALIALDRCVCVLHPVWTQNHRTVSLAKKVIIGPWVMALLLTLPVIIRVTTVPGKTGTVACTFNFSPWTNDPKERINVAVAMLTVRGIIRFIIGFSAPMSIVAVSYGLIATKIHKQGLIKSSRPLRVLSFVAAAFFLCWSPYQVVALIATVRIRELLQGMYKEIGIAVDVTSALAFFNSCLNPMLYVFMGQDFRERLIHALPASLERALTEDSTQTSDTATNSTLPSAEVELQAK
Experimental: The binding study of COSP-1 to the fMLP receptor was done using the differentiated HL60 cells. The differentiated HL60 cells were washed twice with HBHS. Then, the cells were suspended at 3.1×10^7 cells/ml and this suspension was transferred to tubes (2.5×10^6 cells/80 μl) and incubated at 22° C. for 10 minutes. Subsequently, various concentrations of COSP-1 or fMLP (10 μl) were added and incubated at 22° C. for 5 minutes. Thereafter, 10 μl of [^3H]fMLP (final concentration at 50 nM) was added and reaction was performed at 22° C. for 60 minutes. By adding 500 μl of ice-cooled PBS-BSA (10 mM phosphate, 120 mM NaCl, 0.5% BSA), the reaction was stopped. The treated cell suspension was then passed through a glass-fiber filter (Whatman GF/C) and the filter was washed three times with ice-cooled PBS-BSA (2 ml) to remove [^3H]fMLP not bound to the cells. The glass-fiber filter was dried and a scintillant was added to a solution for radioactivity measurement.
The measurements of binding of the fMLP to the fMLP receptors were expressed as the percentage (%/total) for a maximum binding which was shown as the radioactivity of [^3H]fMLP having specific binding to the receptors in the absence of an unlabelled ligand.

[5] = test system: G protein (Gi); test: GTPase activity of purified Gi reconstituted on a phospholipid membrane; assay type: biochemical, rabbit; settings: 3 μM
Excerpt: G protein (Gi), which is present in neutrophils and involved in […] of fMLP, was extracted from the rabbit liver and purified (J. Biol. Chem. 267, 16237-16243, 1992). The purified Gi was reconstituted on a phospholipid membrane, and it was challenged by fCyt b (1-15) or COSP-1. We measured GTPase activity for these stimulations.

[6] = test system: differentiated HL60 cells; test: LDH leakage from HL60 cells
Experimental: as §1, §2, §3

Row | Compound | β-HA secretion from neutrophil cells (%/total) [1] [%/total] | secretion of β-HA from human neutrophils [1] [%] | β-HA secretion from monocyte and lymphocyte mixed cells (%/total) [2] [%/total] | secretion of β-HA in the monocyte and lymphocyte mixed cells ([2]; stimulation with 10 μM) [%] | LDH leakage from the HL60 cells [3] | inhibition of the specific binding between [3H]fMLP and fMLP receptors [4] | stimulation of the GTPase activity of Gi [5] | LDH leakage from the HL60 cells ([6]; Example 6) | LDH leakage out of the cells ([6]; differentiated HL60 cells, Example 4)
1 | CSCC[C@H](NC=O)C(=O)N[C@@H](CC(C)C)C(=O)N[C@@H](Cc1ccccc1)C(=O)O [fMLP, formyl methionyl-leucyl-phenylalanine, reference compound] | 68.3 | 68.3 | 21.8 ± 5.3 | 21.8±5.3 | neither of COSP-1 and fMLP caused LDH leakage | – | – | – | –
2 | LSFLIPAGWVLSHLDHYKRSSAA-OH [COSP-1] | 40.5 | 40.5 | – | – | – | not by COSP-1 even when its final concentration was reacted to 10 μM | about 6 fold | neither of COSP-1 and fMLP caused LDH leakage | no LDH was found to leak out

From patent US7285618B1, “Polypeptides having neutrophil stimulating activity” (Japan Tobacco Inc., priority 2000, dated 2007)
